Patent US20230027854A1, “ISOXAZOLE DERIVATIVES TARGETING TACC3 AS ANTICANCER AGENTS” (A2A Pharmaceuticals, inc., priority 2019, published 2023)

Tested on: JIMT-1 cells
Experiment: JIMT-1 cell growth inhibition / cell viability (SRB assay)
Type: cell-based
Conditions: Homo sapiens; JIMT-1 cells; read-out: IC50
Experimental: The ability of the compounds of the present disclosure to treat TACC3-mediated cancers, or associated symptoms or complications thereof, was determined using the following procedures. The compounds of the present disclosure were tested for their activity against cell death induction using a JIMT-1 cell line, which was a cell line having high level of TACC3. The concentration of each compound that was required for half-maximal inhibition of cell proliferation was calculated by a GraphPad Prism (GraphPad Software).

c1ccc(-c2cc(Nc3ccnc(N4CCOCC4)n3)on2)cc1 [Compound 8, N-(2-morpholinopyrimidin-4-yl)-3-phenylisoxazol-5-amine]
IC50: > 10000 nM

COc1ccc(-c2cc(Nc3nc(N4CCC(F)CC4)ncc3Cl)on2)cc1 [Compound 59, N-(5-chloro-2-(4-fluoropiperidin-1-yl)pyrimidin-4-yl)-3-(4-methoxyphenyl)isoxazol-5-amine]
IC50: 800 nM

COc1ccc(-c2cc(Nc3ccnc(N4CCN(C)CC4)n3)on2)cc1 [Compound 48, 3-(4-methoxyphenyl)-N-(2-(4-methylpiperazin-1-yl)pyrimidin-4-yl)isoxazol-5-amine]
IC50: 1560 nM

Fc1ccc(-c2cc(Nc3ccnc(N4CCOCC4)n3)on2)cc1 [Compound 11, 3-(4-fluorophenyl)-N-(2-morpholinopyrimidin-4-yl)isoxazol-5-amine]
IC50: > 10000 nM

COc1ccc(-c2cc(Nc3ccnc(N4CCC(CCO)CC4)n3)on2)cc1 [Compound 46, 2-(1-(4-((3-(4-methoxyphenyl)isoxazol-5-yl)amino)pyrimidin-2-yl)piperidin-4-yl)ethan-1-ol]
IC50: 3970 nM

Clc1ccc(-c2cc(Nc3ccnc(N4CCOCC4)n3)on2)cc1 [Compound 12, 3-(4-chlorophenyl)-N-(2-morpholinopyrimidin-4-yl)isoxazol-5-amine]
IC50: > 10000 nM

COc1ccc(-c2cc(Nc3ccnc(N4CCC(C)CC4)n3)on2)cc1 [Compound 43, 3-(4-methoxyphenyl)-N-(2-(4-methylpiperidin-1-yl)pyrimidin-4-yl)isoxazol-5-amine]
IC50: 204 nM

CSc1ccc(-c2cc(Nc3ccnc(N4CCOCC4)n3)on2)cc1 [Compound 20, 3-(4-(methylthio)phenyl)-N-(2-morpholinopyrimidin-4-yl)isoxazol-5-amine]
IC50: 30 nM

COc1ccc(-c2cc(Nc3nc(N4CCC(F)CC4)ncc3F)on2)cc1 [Compound 60, N-(5-fluoro-2-(4-fluoropiperidin-1-yl)pyrimidin-4-yl)-3-(4-methoxyphenyl)isoxazol-5-amine]
IC50: 540 nM

CCOC(=O)C1CCN(c2nccc(Nc3cc(-c4ccc(OC)cc4)no3)n2)CC1 [Compound 50, Ethyl 1-(4-((3-(4-methoxyphenyl)isoxazol-5-yl)amino)pyrimidin-2-yl)piperidine-4-carboxylate]
IC50: > 10000 nM

FC(F)Oc1ccc(-c2cc(Nc3ccnc(N4CCOCC4)n3)on2)cc1 [Compound 18, 3-(4-(difluoromethoxy)phenyl)-N-(2-morpholinopyrimidin-4-yl)isoxazol-5-amine]
IC50: 4230 nM

Oc1ccc(-c2cc(Nc3ccnc(N4CCOCC4)n3)on2)cc1 [Compound 30, 4-(5-((2-morpholinopyrimidin-4-yl)amino)isoxazol-3-yl)phenol]
IC50: > 10000 nM

COc1ccc(-c2cc(Nc3ccnc(N4CCOCC4)n3)on2)cc1F [Compound 22, 3-(3-fluoro-4-methoxyphenyl)-N-(2-morpholinopyrimidin-4-yl)isoxazol-5-amine]
IC50: 13 nM

COc1ccc(-c2cc(Nc3ccnc(N4CCC(F)(F)CC4)n3)on2)cc1 [Compound 39, N-(2-(4,4-difluoropiperidin-1-yl)pyrimidin-4-yl)-3-(4-methoxyphenyl)isoxazol-5-amine]
IC50: 370 nM

COc1ccc(-c2cc(Nc3ccnc(N4CCNCC4)n3)on2)cc1 [Compound 49, 3-(4-methoxyphenyl)-N-(2-(piperazin-1-yl)pyrimidin-4-yl)isoxazol-5-amine]
IC50: > 10000 nM

COc1ccc(-c2cc(Nc3ccnc(N4C5CCC4COC5)n3)on2)cc1 [Compound 34, N-(2-(3-oxa-8-azabicyclo[3.2.1]octan-8-yl)pyrimidin-4-yl)-3-(4-methoxyphenyl)isoxazol-5-amine]
IC50: 160 nM

CCCOc1ccc(-c2cc(Nc3ccnc(N4CCOCC4)n3)on2)cc1 [Compound 10, N-(2-morpholinopyrimidin-4-yl)-3-(4-propoxyphenyl)isoxazol-5-amine]
IC50: > 10000 nM

CC(C)c1ccc(-c2cc(Nc3ccnc(N4CCOCC4)n3)on2)cc1 [Compound 15, 3-(4-isopropylphenyl)-N-(2-morpholinopyrimidin-4-yl)isoxazol-5-amine]
IC50: 3610 nM

FC(F)(F)c1ccc(-c2cc(Nc3ccnc(N4CCOCC4)n3)on2)cc1 [Compound 16, N-(2-morpholinopyrimidin-4-yl)-3-(4-(trifluoromethyl)phenyl)isoxazol-5-amine]
IC50: > 10000 nM

COc1cccc(-c2cc(Nc3ccnc(N4CCOCC4)n3)on2)c1 [Compound 6, 3-(3-methoxyphenyl)-N-(2-morpholinopyrimidin-4-yl)isoxazol-5-amine]
IC50: 3440 nM

Cc1ccc(-c2cc(Nc3ccnc(N4CCOCC4)n3)on2)cc1 [Compound 13, N-(2-morpholinopyrimidin-4-yl)-3-(p-tolyl)isoxazol-5-amine]
IC50: 640 nM

FC(F)(F)Oc1ccc(-c2cc(Nc3ccnc(N4CCOCC4)n3)on2)cc1 [Compound 19, N-(2-morpholinopyrimidin-4-yl)-3-(4-(trifluoromethoxy)phenyl)isoxazol-5-amine]
IC50: > 10000 nM

CCc1ccc(-c2cc(Nc3ccnc(N4CCOCC4)n3)on2)cc1 [Compound 14, 3-(4-ethylphenyl)-N-(2-morpholinopyrimidin-4-yl)isoxazol-5-amine]
IC50: 259 nM

COc1ccc(-c2cc(Nc3ccnc(N4C[C@@H](C)O[C@@H](C)C4)n3)on2)cc1 [Compound 33, N-(2-((2R,6S)-2,6-dimethylmorpholino)pyrimidin-4-yl)-3-(4-methoxyphenyl)isoxazol-5-amine]
IC50: 230 nM

COc1ccc(-c2cc(Nc3ccnc(N4CCC(F)CC4)n3)on2)cc1 [Compound 38, N-(2-(4-fluoropiperidin-1-yl)pyrimidin-4-yl)-3-(4-methoxyphenyl)isoxazol-5-amine]
IC50: 130 nM

COc1ccc(-c2cc(Nc3ccnc(N4CCCC4)n3)on2)cc1F [Compound 67, 3-(3-fluoro-4-methoxyphenyl)-N-(2-(pyrrolidin-1-yl)pyrimidin-4-yl)isoxazol-5-amine]
IC50: 49 nM

COc1ccc(-c2cc(Nc3ccnc(N4CCOCC4)n3)on2)cn1 [Compound 27, 3-(6-methoxypyridin-3-yl)-N-(2-morpholinopyrimidin-4-yl)isoxazol-5-amine]
IC50: 7300 nM

COc1ccc(-c2cc(Nc3ccnc(N4C[C@H]5C[C@@H]4CO5)n3)on2)cc1 [Compound 37, N-(2-((1R,4R)-2-oxa-5-azabicyclo[2.2.1]heptan-5-yl)pyrimidin-4-yl)-3-(4-methoxyphenyl)isoxazol-5-amine]
IC50: 480 nM

COc1ccc(-c2cc(Nc3ccnc(N4CCOCC4)n3)on2)cc1OC [Compound 24, 3-(3,4-dimethoxyphenyl)-N-(2-morpholinopyrimidin-4-yl)isoxazol-5-amine]
IC50: 730 nM

COc1ccc(-c2cc(N(C)c3ccnc(N4CCOCC4)n3)on2)cc1 [Compound 63, 3-(4-methoxyphenyl)-N-methyl-N-(2-morpholinopyrimidin-4-yl)isoxazol-5-amine]
IC50: 160 nM

CC(F)(F)c1ccc(-c2cc(Nc3ccnc(N4CCOCC4)n3)on2)cc1 [Compound 17, 3-(4-(1,1-difluoroethyl)phenyl)-N-(2-morpholinopyrimidin-4-yl)isoxazol-5-amine]
IC50: > 10000 nM

c1cc(Nc2cc(-c3ccc4c(c3)OCO4)no2)nc(N2CCOCC2)n1 [Compound 26, 3-(benzo[d][1,3]dioxol-5-yl)-N-(2-morpholinopyrimidin-4-yl)isoxazol-5-amine]
IC50: 870 nM

CCOc1ccc(-c2cc(Nc3ccnc(N4CCOCC4)n3)on2)cc1 [Compound 9, 3-(4-ethoxyphenyl)-N-(2-morpholinopyrimidin-4-yl)isoxazol-5-amine]
IC50: 810 nM

COc1ccc(-c2cc(Nc3ccnc(N4CCOCC4)n3)on2)cc1Cl [Compound 23, 3-(3-chloro-4-methoxyphenyl)-N-(2-morpholinopyrimidin-4-yl)isoxazol-5-amine]
IC50: 480 nM

CN(C)c1ccc(-c2cc(Nc3ccnc(N4CCC(F)CC4)n3)on2)cc1 [Compound 64, 3-(4-(dimethylamino)phenyl)-N-(2-(4-fluoropiperidin-1-yl)pyrimidin-4-yl)isoxazol-5-amine]
IC50: 157 nM

COc1ccccc1-c1cc(Nc2ccnc(N3CCOCC3)n2)on1 [Compound 7, 3-(2-methoxyphenyl)-N-(2-morpholinopyrimidin-4-yl)isoxazol-5-amine]
IC50: 8270 nM

COc1ccc(-c2cc(Nc3ccnc(N4C[C@@H]5C[C@H]4CO5)n3)on2)cc1 [Compound 36, N-(2-((1S,4S)-2-oxa-5-azabicyclo[2.2.1]heptan-5-yl)pyrimidin-4-yl)-3-(4-methoxyphenyl)isoxazol-5-amine]
IC50: 2020 nM

COc1ccc(-c2cc(Nc3ccnc(N4CCN(CCO)CC4)n3)on2)cc1 [Compound 47, 2-(4-(4-((3-(4-methoxyphenyl)isoxazol-5-yl)amino)pyrimidin-2-yl)piperazin-1-yl)ethan-1-ol]
IC50: > 10000 nM

c1ccc(COc2ccc(-c3cc(Nc4ccnc(N5CCOCC5)n4)on3)cc2)cc1 [Compound 32, 3-(4-(benzyloxy)phenyl)-N-(2-morpholinopyrimidin-4-yl)isoxazol-5-amine]
IC50: > 10000 nM

COc1ccc(-c2cc(Nc3ccnc(N4C5CCC4COC5)n3)on2)cc1F [Compound 66, N-(2-(3-oxa-8-azabicyclo[3.2.1]octan-8-yl)pyrimidin-4-yl)-3-(3-fluoro-4-methoxyphenyl)isoxazol-5-amine]
IC50: 53 nM

COc1ccc(-c2cc(Nc3ccnc(N4CCCCC4)n3)on2)cc1 [Compound 42, 3-(4-methoxyphenyl)-N-(2-(piperidin-1-yl)pyrimidin-4-yl)isoxazol-5-amine]
IC50: 116 nM

COc1ccc(-c2cc(Nc3cc(C)nc(N4CCC(F)CC4)n3)on2)cc1 [Compound 61, N-(2-(4-fluoropiperidin-1-yl)-6-methylpyrimidin-4-yl)-3-(4-methoxyphenyl)isoxazol-5-amine]
IC50: 1000 nM

COc1ccc(-c2cc(Nc3ccnc(N4CCC(F)CC4)n3)on2)cc1F [Compound 65, 3-(3-fluoro-4-methoxyphenyl)-N-(2-(4-fluoropiperidin-1-yl)pyrimidin-4-yl)isoxazol-5-amine]
IC50: 145 nM
